Measured values reported in patent publication US7879876B2, “Sulfonamide derivatives and use thereof for the modulation of metalloproteinases” (Merck Serono SA, priority 2005, dated 2011).

Tests used:
[1] = test system: IL-2-induced peritoneal recruitment of lymphocytes; assay: IL-2-induced peritoneal recruitment of lymphocytes; type: in vivo, C3H/HEN mice; settings: Mus musculus, Lymphocyte, po; 3 mg/kg p.o., 15 min prior to IL-2; mice; 24 h after IL-2
Protocol: Administration of IL-2 intraperitoneally causes migration of lymphocytes into the intraperitoneal cavity. This is a model for the cellular migration that occurs during inflammation.
C3H/HEN mice (Elevage Janvier, France) were intraperitoneally injected with IL-2 (Serono Pharmaceutical Research Institute, 20 μg/kg, in saline). Compounds of the invention were suspended in 0.5% carboxymethylcellulose (CMC)/0.25% tween-20 and were administered by s.c. or p.o. route (10 ml/kg) 15 min prior to administration of IL-2.
Twenty-four hours after administration of IL-2, peritoneal white blood cells were collected by 3 successive lavages of the peritoneal cavity with 5 ml phosphate buffered saline (PBS)-1 mM EDTA (+4° C.). The suspension was centrifuged (1700 g×10 min at +4° C.). The resulting pellet was suspended in 1 ml PBS-1 mM EDTA.
Lymphocytes were identified and counted using a Beckman/Coulter counter.
The animals were divided into 6 groups (6 mice each group):
Group 1: (baseline) received 0.5% CMC/0.25% tween-20 (vehicle of compound of the invention) and saline (vehicle of IL-2);
Group 2: (control IL-2) received 0.5% CMC/0.25% tween-20 and injection of IL-2;
Group 3: Experimental group (Compound of the invention Dose 1) received a compound of the invention and injection of IL-2;
Group 4: Experimental group (Compound of the invention Dose 2) received a compound of the invention and injection of IL-2;
Group 5: Experimental group (Compound of the invention Dose 3) received a compound of the invention and injection of IL-2;
Group 6: Reference group received reference compound dexamethasone and injection of IL-2.
Inhibition of lymphocyte recruitment was calculated as follows:
Where Ly 1=Number of lymphocytes in group 1 (E3/μl), Ly 2=Number of lymphocytes in group 2 (E3/μl), Ly X=Number of lymphocytes in group X (3-5) (E3/μl).

[2] = biological target: MMP13 (Homo sapiens, UniProt P45452); assay: MMP13 inhibition (Table 1); type: biochemical; settings: read-out: percentage inhibition MMP13

In the case of `O=CN(O)C(CS(=O)(=O)N1CCc2ccc(Cl)cc2C1)C1CCCC1` (centres unmarked) [Example 21, N-{2-[(7-chloro-3,4-dihydroisoquinolin-2(1H)-yl)sulfonyl]-1-cyclopentylethyl}-N-hydroxyformamide], the inhibition in vivo at 3 mg/kg [1] is reported as 43 ± 9%.

`CC1(C)OC[C@H](C(CS(=O)(=O)N2CCc3ccc(Cl)cc3C2)N(O)C=O)O1` (stereo partly drawn) [Example 19, N-{2-[(7-chloro-3,4-dihydroisoquinolin-2(1H)-yl)sulfonyl]-1-[(4S)-2,2-dimethyl-1,3-dioxolan-4-yl]ethyl}-N-hydroxyformamide] gave an inhibition in vivo at 3 mg/kg [1] of 62 ± 9%.

`O=CN(O)[C@H](CS(=O)(=O)N1CCc2ccc(C(F)(F)F)cc2C1)[C@H]1CCCO1` [Example 27, N-hydroxy-N-((1S)-1-[(2R)-tetrahydrofuran-2-yl]-2-{[7-(trifluoromethyl)-3,4-dihydroisoquinolin-2(1H)-yl]sulfonyl}ethyl)formamide] showed an inhibition in vivo at 3 mg/kg [1] of 46 ± 9%.

Work on `O=CN(O)C(CS(=O)(=O)N1CCc2ccccc2C1)C1CC1` (centres unmarked) [Example 4, N-[1-cyclopropyl-2-(3,4-dihydroisoquinolin-2(1H)-ylsulfonyl)ethyl]-N-hydroxyformamide] yielded an inhibition at 0.1 µM [2] of 0% and an inhibition at 5 µM [2] of 80%.

`CCCCCC(CS(=O)(=O)N1CCc2ccccc2C1)N(O)C=O` (centres unmarked) [Example 3, N-{1-[(3,4-dihydroisoquinolin-2(1H)-ylsulfonyl)methyl]hexyl}-N-hydroxyformamide] gave an inhibition at 0.1 µM [2] of 6% and an inhibition at 5 µM [2] of 98%.

`O=CN(O)C(CS(=O)(=O)N1CCc2ccc(-c3ccc(F)cc3)cc2C1)C1CC1` (centres unmarked) [Example 75, N-(1-cyclopropyl-2-{[7-(4-fluorophenyl)-3,4-dihydro-isoquinolin-2(1H)-yl]sulfonyl}ethyl)-N-hydroxyformamide] was tested, and the inhibition in vivo at 3 mg/kg [1] was 26 ± 11%.

Work on `CC1(C)OC[C@H](C(CS(=O)(=O)N2CCc3ccccc3C2)N(O)C=O)O1` (stereo partly drawn) [Example 2, N-{2-(3,4-dihydroisoquinolin-2(1H)-ylsulfonyl)-1-[(4S)-2,2-dimethyl-1,3-dioxolan-4-yl]ethyl}-N-hydroxyformamide] yielded an inhibition at 0.1 µM [2] of 17%, an inhibition at 5 µM [2] of 98% and an inhibition in vivo at 3 mg/kg [1] of 16 ± 13%.

In the case of `O=CN(O)C(CO)CS(=O)(=O)N1CCc2cc(Cl)c(Cl)cc2C1` (centres unmarked) [Example 49, N-[2-[(6,7-dichloro-3,4-dihydroisoquinolin-2(1H)-yl)-sulfonyl]-1-(hydroxymethyl)ethyl]-N-hydroxyformamide], the inhibition in vivo at 3 mg/kg [1] is reported as 16 ± 12%.

`O=CN(O)C(COCc1ccccc1)CS(=O)(=O)N1CCc2ccc(C(F)(F)F)cc2C1` (centres unmarked) [Example 59, N-[2-(benzyloxy)-1-({[7-(trifluoromethyl)-3,4-dihydro-isoquinolin-2(1H)-yl]sulfonyl}methyl)ethyl]-N-hydroxyformamide] was tested, and the inhibition in vivo at 3 mg/kg [1] was 55 ± 9%.

`COc1ccc(C(CS(=O)(=O)N2CCc3ccccc3C2)N(O)C=O)cn1` (centres unmarked) [Example 13, N-[2-(3,4-dihydroisoquinolin-2(1H)-ylsulfonyl)-1-(6-methoxypyridin-3-yl)ethyl]-N-hydroxyformamide] was tested, and the inhibition at 0.1 µM [2] was 28% and the inhibition at 5 µM [2] was 96%.

With `CC(C)(CS(=O)(=O)N1CCc2ccc(Br)cc2C1)N(O)C=O` [Example 56, N-{2-[(7-bromo-3,4-dihydroisoquinolin-2(1H)-yl)sulfonyl]-1,1-dimethylethyl}-N-hydroxyformamide] the inhibition in vivo at 3 mg/kg [1] was 37 ± 8%.

With `O=CN(O)C(CCC(F)(F)F)CS(=O)(=O)N1CCc2ccc(Cl)cc2C1` (centres unmarked) [Example 76, N-(1-{[(7-chloro-3,4-dihydroisoquinolin-2(1H)-yl)-sulfonyl]methyl}-4,4,4-trifluorobutyl)-N-hydroxyformamide] the inhibition in vivo at 3 mg/kg [1] was 45 ± 11%.

For `O=CN(O)C1(CS(=O)(=O)N2CCc3ccc(Cl)cc3C2)CCCC1` [Example 62, N-(1-{[(7-chloro-3,4-dihydroisoquinolin-2(1H)-yl)-sulfonyl]methyl}cyclopentyl)-N-hydroxyformamide], the inhibition in vivo at 3 mg/kg [1] was 20 ± 9%.

Work on `O=CN(O)[C@H](CS(=O)(=O)N1Cc2ccc(F)cc2C1)[C@H]1CCCO1` [Example 29, N-{(1S)-2-[(5-fluoro-1,3-dihydro-2H-isoindol-2-yl)-sulfonyl]-1-[(2R)-tetrahydrofuran-2-yl]ethyl}-N-hydroxyformamide] yielded an inhibition in vivo at 3 mg/kg [1] of 29 ± 11%.

Compound `CC(C)(C)CC(CS(=O)(=O)N1CCc2cc(Cl)c(Cl)cc2C1)N(O)C=O` (centres unmarked) [Example 42, N-(1-{[(6,7-dichloro-3,4-dihydroisoquinolin-2(1H)-yl)-sulfonyl]methyl}-3,3-dimethylbutyl)-N-hydroxyformamide] has an inhibition in vivo at 3 mg/kg [1] of 40 ± 10%.

`O=CN(O)C(CS(=O)(=O)N1CCc2ccccc2C1)c1cccnc1` (centres unmarked) [Example 10, N-[2-(3,4-dihydroisoquinolin-2(1H)-ylsulfonyl)-1-pyridin-3-ylethyl]-N-hydroxyformamide] gave an inhibition at 5 µM [2] of 93%.

With `CC1(C)OC[C@H](C(CS(=O)(=O)N2Cc3ccccc3C2)N(O)C=O)O1` (stereo partly drawn) [Example 16, N-{2-(1,3-dihydro-2H-isoindol-2-ylsulfonyl)-1-[(4S)-2,2-dimethyl-1,3-dioxolan-4-yl]ethyl}-N-hydroxyformamide] the inhibition in vivo at 3 mg/kg [1] was 44 ± 7%.

Work on `CC1(C)OC[C@H](C(CS(=O)(=O)N2CCc3ccc(C(F)(F)F)cc3C2)N(O)C=O)O1` (stereo partly drawn) [Example 28, N-(1-[(4S)-2,2-dimethyl-1,3-dioxolan-4-yl]-2-{[7-(trifluoro-methyl)-3,4-dihydroisoquinolin-2(1H)-yl]sulfonyl}ethyl)-N-hydroxyformamide] yielded an inhibition in vivo at 3 mg/kg [1] of 62 ± 5%.

In the case of `COc1cc2c(cc1OC)CN(S(=O)(=O)CC(CCc1ccccc1)N(O)C=O)CC2` (centres unmarked) [Example 12, N-(1-{[(6,7-dimethoxy-3,4-dihydroisoquinolin-2(1H)-yl)sulfonyl]methyl}-3-phenylpropyl)-N-hydroxyformamide], the inhibition at 5 µM [2] is reported as 48%.

Compound `CC(C)C(CS(=O)(=O)N1CCc2ccc(-c3ccc(F)cc3)cc2C1)N(O)C=O` (centres unmarked) [Example 50, N-[1-({[7-(4-fluorophenyl)-3,4-dihydroisoquinolin-2(1H)-yl]sulfonyl}methyl)-2-methylpropyl]-N-hydroxyformamide] has an inhibition in vivo at 3 mg/kg [1] of 32 ± 4%.

Work on `O=CN(O)C(CCc1ccccc1)CS(=O)(=O)N1CCc2ccccc2C1` (centres unmarked) [Example 1, N-{1-[(3,4-dihydroisoquinolin-2(1H)-ylsulfonyl)methyl]-3-phenylpropyl}-N-hydroxyformamide] yielded an inhibition at 0.1 µM [2] of 15% and an inhibition at 5 µM [2] of 97%.

`O=CN(O)C(CS(=O)(=O)N1CCc2cc(C(F)(F)F)ccc2C1)C1CCCC1` (centres unmarked) [Example 25, N-(1-cyclopentyl-2-{[6-(trifluoromethyl)-3,4-dihydro-isoquinolin-2(1H)-yl]sulfonyl}ethyl)-N-hydroxyformamide] gave an inhibition in vivo at 3 mg/kg [1] of 37 ± 7%.

For `O=CN(O)C(CS(=O)(=O)N1CCc2ccc(-c3ccncc3)cc2C1)C1CCCC1` (centres unmarked) [Example 79, N-{1-cyclopentyl-2-[(7-pyridin-4-yl-3,4-dihydroisoquinolin-2(1H)-yl)sulfonyl]ethyl}-N-hydroxyformamide], the inhibition in vivo at 3 mg/kg [1] was 43 ± 10%.

With `O=CN(O)C(COc1ccccc1)CS(=O)(=O)N1CCc2ccc(Cl)cc2C1` (centres unmarked) [Example 61, N-[2-[(7-chloro-3,4-dihydroisoquinolin-2(1H)-yl)sulfonyl]-1-(phenoxymethyl)ethyl]-N-hydroxyformamide] the inhibition in vivo at 3 mg/kg [1] was 45 ± 9%.

Compound `O=CN(O)C(CS(=O)(=O)N1CCc2ccc(-c3ccsc3)cc2C1)C1CCCC1` (centres unmarked) [Example 68, N-(1-cyclopentyl-2-{[7-(3-thienyl)-3,4-dihydroisoquinolin-2(1H)-yl]sulfonyl}ethyl)-N-hydroxyformamide] has an inhibition in vivo at 3 mg/kg [1] of 33 ± 7%.

`CC(C)c1ccc2c(c1)CCN(S(=O)(=O)CC([C@H]1COC(C)(C)O1)N(O)C=O)C2` (stereo partly drawn) [Example 18, N-{1-[(4S)-2,2-dimethyl-1,3-dioxolan-4-yl]-2-[(6-isopropyl-3,4-dihydroisoquinolin-2(1H)-yl)sulfonyl]ethyl}-N-hydroxyformamide] showed an inhibition in vivo at 3 mg/kg [1] of 39 ± 7%.

With `CCC(CC)C(CS(=O)(=O)N1CCc2cc(C(C)C)ccc2C1)N(O)C=O` (centres unmarked) [Example 35, N-(2-ethyl-1-{[(6-isopropyl-3,4-dihydroisoquinolin-2(1H)-yl)sulfonyl]methyl}butyl)-N-hydroxyformamide] the inhibition in vivo at 3 mg/kg [1] was 50 ± 8%.

Compound `O=CN(O)C(CS(=O)(=O)N1Cc2ccccc2C1)C1CC1` (centres unmarked) [Example 72, N-[1-cyclopropyl-2-(1,3-dihydro-2H-isoindol-2-ylsulfonyl)-ethyl]-N-hydroxyformamide] has an inhibition in vivo at 3 mg/kg [1] of 41 ± 7%.

`CC(C)(Cc1ccccc1)C(CS(=O)(=O)N1CCc2cc(C(F)(F)F)ccc2C1)N(O)C=O` (centres unmarked) [Example 31, N-[2,2-dimethyl-3-phenyl-1-({[6-(trifluoromethyl)-3,4-dihydroisoquinolin-2(1H)-yl]sulfonyl}methyl)propyl]-N-hydroxyformamide] was tested, and the inhibition in vivo at 3 mg/kg [1] was 31 ± 10%.
